Assay results: PubChem BioAssay AID1985 (Southern Research Specialized Biocontainment Screening …, 2009)
Where “and” joins values, the source holds several entries; their conditions need not be identical. Equal entries are not always repeated.

Test system: S. Typhi PhoP-promoter GFP reporter, fluorescence, 4 h
Test: PhoP regulon inhibitor project modified counter assay, GFP fluorescence readout, dose response (AID 1985)

Row | SMILES | IC50
1 | Cc1ccc(OCC(=O)N/N=C\c2c(C)[nH]n(-c3ccccc3)c2=O)c([N+](=O)[O-])c1 | 53.6 µM
2 | c1ccc(Sc2cccc3ccccc23)c(CNC2=NCCN2)c1 | 80 µM
3 | CCOc1ccc(/C=N/NC(=O)c2[nH]ncc2Br)c(O)c1 | 65.4 µM
4 | Nc1c(Cl)ncnc1N/N=C/c1ccccn1 | 33.4 µM
5 | CN1CCN(C2=Cc3ccccc3Sc3cc(F)ccc32)CC1 | 114 µM
6 | CCCCCCCCCn1c2c(c(=N)c3c1CCC3)CCC2 | 36.7 µM
7 | COc1cc(/C=N/N=C(N)N)ccc1OCc1ccc(Cl)cc1 | 36.7 µM
8 | Cc1ccc(NC(=O)c2ccccc2)s1 | 91.9 µM
9 | CCn1nc(C(=O)O)c(=O)c2cc3c(cc21)OCO3 | 103 µM
10 | CCS(=O)(=O)c1ccc2oc(=O)c(/C=C(\O)c3ccc(Cl)cc3)nc2c1 | 65.1 µM
11 | COc1c2ccccc2nc2ccccc12 | 28.8 µM
12 | O=C(c1cnn(C(=O)COc2ccccc2F)c1)c1cc(F)ccc1O | 83.3 µM
13 | Oc1ccc(COCc2ccccc2)c2cccnc12 | 47.8 µM
14 | CCn1cc(C(=O)O)c(=O)c2cnc(N3CCNCC3)nc21 | 113 µM
15 | CCCCCOc1ccc(CSC2=NCCN2)cc1[N+](=O)[O-] | 95.1 µM
16 | CS(=O)(=O)c1ccc([C@@H](O)[C@@H](CO)NC(=O)C(Cl)Cl)cc1 | 19.7 µM
17 | CCCNC(=O)c1cn(CC)c2cc(N3CCN(C)CC3)c(F)cc2c1=O | 28 µM
18 | O=C(Nc1nnc(-c2cccs2)o1)c1cccc(Oc2ccccc2)c1 | 39.9 µM
19 | Cc1cc(C)c(OCCCCNCc2ccccc2)c(Cl)c1 | 113 µM
20 | Oc1ccc(C[C@@H]2CNCCN2CCC23CC4CC(CC(C4)C2)C3)cc1 | 78.9 µM
21 | C/C(=N/Nc1ccnc2cc(Cl)ccc12)c1ccc(N)cc1 | 55.3 µM
22 | O=[N+]([O-])c1ccc(/C=N/NC(=S)Nc2ccc(Cl)cc2Cl)s1 | 25 µM
23 | OCCNc1nc(Nc2ccc(Br)cc2)nc2ccccc12 | 19 µM

Row | SMILES | IC50
24 | C#CCOCCOCCOCCNc1nc(N2CCN(C(=O)CCCCCCCCCCNC(=O)[C@H](CCCCN)n3cc(C)nn3)CC2)nc(N2CCN(C(=O)CCCCCCCCCCNC(=O)[C@H](CCCN=C(N)N)n3cc(C[C@@H](C)CC)nn3)CC2)n1 | 31.9 µM
25 | c1ccc2c(NCCc3c[nH]c4ccccc34)c3ccccc3nc2c1 | 75.7 µM
26 | CC(C(=O)NC1CCS(=O)(=O)C1)N1C(=O)/C(=C/c2ccc(Cl)cc2)SC1=S (stereo unspecified) | 18.3 µM
27 | COc1ccc(C(=O)NNC(=S)NC(=O)c2ccccc2)cc1 | 82.5 µM
28 | CCn1cc(C(=O)O)c(=O)c2cc(F)c(N3CCN(C(=S)Nc4ccccc4OC)CC3)cc21 | 6.7 µM
29 | Cc1cc(OCC(O)CNC(C)c2ccccc2)ccc1C(C)C (stereo unspecified) | 82.6 µM
30 | Oc1ccc(CN2CCCc3ccccc32)c2cccnc12 | 36.1 µM
31 | O=C(Cc1cccs1)N/N=C\c1ccc([N+](=O)[O-])s1 | 20.1 µM
32 | CO/N=C(/C(=O)N[C@@H]1C(=O)N2C(C(=O)O)=CCS[C@H]12)c1cnc(N)s1 | 59.8 µM
33 | COc1ccc(C(C[N+](=O)[O-])C2(c3ccc(OC)c(OC)c3)C(=O)c3ccccc3C2=O)cc1 (stereo unspecified) | 8.15 µM
34 | CCOC(=O)c1ccc(CNCc2ccc(Br)cc2)cc1 | 53.8 µM
35 | O=C(CN1C2=NCCCN2c2ccccc21)c1ccc(Br)s1 | 135 µM
36 | Oc1ccc(CN2CCN(Cc3ccccc3)CC2)c2cccnc12 | 39.5 µM
37 | CCn1cc(C(=O)O)c(=O)c2cc(F)c(N3CCN(C(=S)NC(=O)c4ccc(Br)cc4)CC3)cc21 | 31.2 µM
38 | O=C(N/N=C/c1ccc([N+](=O)[O-])s1)C(O)c1ccccc1 (stereo unspecified) | 33.4 µM
39 | O=C(NNc1nc2ccc(F)cc2s1)c1cccc(F)c1 | 148 µM
40 | O=C(N/N=C/c1ccc([N+](=O)[O-])s1)c1ccccc1Br | 27.7 µM
41 | CCc1ccc2c(c1)Sc1ccccc1CC2N1CCN(C)CC1 (stereo unspecified) | 76.8 µM
42 | Cc1ccc(Cn2c(=N)n(CC(O)COc3ccccc3)c3ccccc32)cc1 (stereo unspecified) | 83.6 µM
43 | CNC[C@H](CC1CCCCC1)NC[C@H](Cc1ccccc1)NCCC12CC3CC(CC(C3)C1)C2 | 14.8 µM
44 | C/C(=C\C(=O)OCCCCCCCCC(=O)O)C[C@@H]1OC[C@H](C[C@@H]2O[C@H]2[C@@H](C)[C@H](C)O)[C@@H](O)[C@H]1O | 17.5 µM
45 | OCCCNc1c2ccccc2nc2ccccc12 | 136 µM
46 | CN(C)CC/C=C1\c2ccccc2Sc2ccc(Cl)cc21 | 98.5 µM

Row | SMILES | IC50
47 | N=c1c2c(n(Cc3ccc(Cl)c(Cl)c3)c3c1CCC3)CCCC2 | 80.1 µM
48 | CCCc1nnc(NC(=O)c2cn(CC)c3cc(N4CCN(C)CC4)c(F)cc3c2=O)s1 | 41.2 µM
49 | CCN1CCN(Cc2ccc(NC(=O)c3cc(NC(=O)c4cc(-c5ccc(OC)cc5)n[nH]4)cc(OC)c3)cc2C(F)(F)F)CC1 | 102 µM
50 | Cc1ccc(S(=O)(=O)NNc2ccccc2)cc1 | 134 µM
51 | O=[N+]([O-])c1cc(O)c2ncccc2c1 | 12.1 µM
52 | CN1CCc2nc(SCC(=O)Nc3cccc(F)c3)c(C#N)c(-c3cccs3)c2C1 | 136 µM
53 | O=C(N/N=C\c1ccc(Cl)s1)c1cccs1 | 32.9 µM
54 | C/C(=N\NC(=O)c1ccccc1O)c1cccs1 | 89.3 µM
55 | O=[N+]([O-])c1cc(F)c2cccnc2c1O | 4.83 µM
56 | N=c1n(CCN2CCCCC2)c2ccccc2n1CC(O)c1ccc(Cl)c(Cl)c1 (stereo unspecified) | 64.1 µM
57 | C=CCNc1ncnc2c1[nH]c1ccc(Cl)cc12 | 49.2 µM
58 | O=C(C[n+]1cc(-c2ccc(Cl)cc2)n2c1CCC2)Nc1nc(-c2ccccc2)cs1 | 36.7 µM
59 | Nc1cc(Cl)c2nonc2c1[N+](=O)[O-] | 19.6 µM
60 | CCN1c2ccccc2NC2N=C(OC)C(c3ccccc3)C21 (stereo unspecified) | 55.8 µM
61 | COc1cc(C)c(Cc2cnc(N)nc2N)cc1OC | 2.4 µM
62 | NCCCC[C@H]1CN=C(N)N1CCC12CC3CC(CC(C3)C1)C2 | 131 µM
63 | COc1ccc(NC2=NC3(CCCCC3)N=C(N)N2)cc1 | 141 µM
64 | Cc1ccc(C(=O)Sc2cccccc2=O)cc1 | 1.97 µM
65 | CC/C(=N\Nc1ccnc2cc(Cl)ccc12)c1ccc(O)cc1 | 148 µM
66 | NC(=O)SCC(=O)Nc1cccc(Cl)c1 | 29.9 µM
67 | CCc1cccc2c1Sc1ccccc1CC2N1CCNCC1 (stereo unspecified) | 44.4 µM
68 | Cc1ccc(OCC(O)Cn2c(=N)n(CCN3CCCCC3)c3ccccc32)cc1 (stereo unspecified) | 67.9 µM
69 | CC(=O)NC(c1cccc([N+](=O)[O-])c1)c1ccc2cccnc2c1O (stereo unspecified) | 98.9 µM

Row | SMILES | IC50
70 | CCCCCCCCCCCCCCCC[n+]1ccc(C(N)=O)cc1 | 15.4 µM
71 | CN1CCN(c2c(F)cc3c(=O)c(C(=O)O)cn4c3c2OCN4C)CC1 | < 0.23 µM
72 | COc1ccc(NC(=O)c2cc(Br)c(Br)s2)cn1 | 23.3 µM
73 | O=C(/C=C/c1cc(Br)ccc1O)c1ccco1 | 68.1 µM
74 | C[C@H]1c2cccc(O)c2C(O)=C2C(=O)[C@]3(O)C(O)=C(C(N)=O)C(=O)[C@@H](N(C)C)C3[C@@H](O)C21 (stereo partly specified) | 1.19 µM
75 | CCCCn1c(=N)n(CC(=O)c2ccc(Br)s2)c2ccccc21 | 78.7 µM
76 | N#Cc1nc(Cc2cccc3ccccc23)oc1NCCCN1CCOCC1 | 62 µM
77 | Cc1cc(N=Nc2ccc(C)c(N=Nc3cc(C)c(N)cc3N)c2)c(N)cc1N | 108 µM
78 | CO[C@H]1C=CO[C@@]2(C)Oc3c(C)c(O)c4c(O)c(c5c(c4c3C2=O)NC2(CCN(CC(C)C)CC2)N=5)=NC(=O)C(C)=CC=C[C@H](C)[C@H](O)[C@@H](C)[C@@H](O)[C@@H](C)[C@H](OC(C)=O)[C@@H]1C | 4.08 µM
79 | O=C(O)c1cn(-c2ccc(F)cc2)c2cc(Cl)c(F)cc2c1=O | 89.8 µM
80 | CO[C@H]1/C=C/O[C@@]2(C)Oc3c(C)c(O)c4c(O)c(c(C=NN5CCN(C)CC5)c(O)c4c3C2=O)NC(=O)/C(C)=C\C=C\[C@H](C)[C@H](O)[C@@H](C)[C@@H](O)[C@@H](C)[C@H](OC(C)=O)[C@@H]1C | 32.6 µM
81 | COc1cc(CNCCc2ccccc2)cc(Cl)c1OCc1ccccc1 | 78.9 µM
82 | COc1cccc(Nc2cc(C)nc3ccccc23)c1 | 98.8 µM
83 | O=c1[nH]cc(F)c(=O)[nH]1 | 0.378 µM
84 | COc1cc(C(=O)O/N=C2\C=CC(=O)C(C)=C2)cc(OC)c1OC | 131 µM
85 | CCCCc1c(O)nc(SCC(=O)Nc2ccc3c(c2)CCC3)[nH]c1=O | 30.6 µM
86 | CC(=O)NNC(=S)NC(=O)c1ccccc1 | 22.7 µM
87 | NC(=O)SCC(=O)Nc1ccc(Cl)c(Cl)c1 | 52.2 µM
88 | O=C(O)c1sccc1Oc1ccc(F)cc1[N+](=O)[O-] | 12.6 µM
89 | O=c1ccc2cc3c([nH]c4ccc(Br)cc43)oc-2c1O | 22.5 µM
90 | O=C(CCN1CCOCC1)N/N=C/c1cc(Br)cc(Br)c1O | 30.7 µM
91 | O=Cc1c(Cl)nc2ccccn2c1=O | 132 µM
92 | Cc1ccc(-c2c[n+](CC(=O)Nc3nc(-c4ccccc4)cs3)c3n2CCC3)cc1 | 90.4 µM

Row | SMILES | IC50
93 | O=C1C2=C(Nc3ccccc3SC2c2ccco2)c2ccccc21 (stereo unspecified) | 120 µM
94 | CC1(C)CC(=O)c2c(nc3ccccc3c2N)C1 | 143 µM
95 | CCn1cc(C(=O)O)c(=O)c2cc(F)c(N3CCN(C(=S)NC(=O)c4ccccc4)CC3)cc21 | 24 µM
96 | CCOc1cccc(/C=N/NC(=O)c2cc(C3CC3)[nH]n2)c1O | 136 µM
97 | CC[C@H]1OC(=O)[C@H](C)[C@@H](O[C@H]2C[C@@](C)(OC)[C@@H](O)[C@H](C)O2)[C@H](C)[C@@H](O[C@@H]2O[C@H](C)C[C@H](N(C)C)[C@H]2O)[C@](C)(O)C[C@@H](C)CN(C)[C@H](C)[C@@H](O)[C@]1(C)O | 2.33 µM
98 | CN1CCN(C(c2ccc(Cl)cc2)c2cc(Cl)c3cccnc3c2O)CC1 (stereo unspecified) | 31.8 µM
99 | COc1c(N2CCN(C(=S)NCc3ccccc3)C(C)C2)c(F)cc2c(=O)c(C(=O)O)cn(C3CC3)c12 (stereo unspecified) | 10.8 µM
100 | NC(=NCCCCCCN=C(N)/N=C(\N)Nc1ccc(Cl)cc1)/N=C(\N)Nc1ccc(Cl)cc1 | 3.89 µM and 3.25 µM and 5.35 µM
101 | C/C(O)=C\c1nc2ccccc2oc1=O | 14.9 µM
102 | O=C(N/N=C\c1c[nH]c2ccccc12)c1ccc(O)cc1 | 134 µM
103 | Cc1cc([N+](=O)[O-])cc(/C=N\NC(=O)C2COc3ccccc3O2)c1O (stereo unspecified) | 23.3 µM
104 | OC1(c2ccc(Cl)cc2)CCN(Cc2c[nH]c3ccccc23)CC1 | 101 µM
105 | Clc1ccc2[nH]c3c(c2c1)CCc1cn[nH]c1-3 | 74.8 µM
106 | Cc1cc(OCCCCCN2CCCC2)ccc1Cl | 112 µM
107 | CCN1CCN(CCNC(=O)c2ccc3c(c2)N(Cc2ccc(F)cc2)C(=O)/C(=C/c2ccccc2)S3)CC1 | 125 µM
108 | Cc1[nH]cnc1C(=O)N/N=C/c1ccc([N+](=O)[O-])s1 | 20.6 µM
109 | O=C(Nc1nnc(-c2ccco2)o1)c1cccc(Cl)c1 | 40 µM
110 | O=c1c2ccccc2[nH]c2ccc(F)cc12 | 71.2 µM
111 | N/C(=N\OS(=O)(=O)c1ccc(Cl)cc1)c1cccnc1 | 91.3 µM
